According to patent EP4631940A1, “COMPOUND TARGETING PAN-KRAS PROTEIN DEGRADATION AGENT AND USE THEREOF” (Betta Pharmaceuticals Co., Ltd., priority 2022, dated 2024):
Read-outs that look alike come from different tables or passages of the source.

Tests used:
SW620 = assay: Cell proliferation experiment (CellTiter-Glo); type: cell-based; settings: read-out: IC50(nM) SW620
AGS = assay: Cell proliferation experiment (CellTiter-Glo); type: cell-based; settings: read-out: IC50(nM) AGS
KRAS G12D = KRAS G12D (Homo sapiens, UniProt P01116, G12D)
KRAS G12D, sequence (P01116 1-188 isoform P01116-2 G12D): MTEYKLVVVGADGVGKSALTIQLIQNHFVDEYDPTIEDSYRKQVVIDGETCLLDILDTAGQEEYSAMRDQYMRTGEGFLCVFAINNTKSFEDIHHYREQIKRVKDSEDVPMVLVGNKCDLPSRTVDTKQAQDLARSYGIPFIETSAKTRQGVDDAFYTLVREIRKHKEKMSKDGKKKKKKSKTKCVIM

[1] = SW620, KRAS mutation type G12V, 96 h incubation
[2] = AGS, KRAS mutation type G12D, 96 h incubation

Compound	IC50 (SW620; [1])	IC50 (AGS; [2])	IC50 (AGS)	other results
(2S,4R)-1-((2S)-2-(4-(5-(1-(4-((1-(((7-(8-ethyl-7-fluoro-3-hydroxynaphthalen-1-yl)-8-fluoro-4-(( R)-3-hydroxy-3-methylpiperidin-1-yl)pyrido[4,3-d]pyrimidin-2-yl)oxy)methyl)cyclopropyl)meth yl)piperidin-1-yl)ethyl)piperidin-2-yl)-1H-1,2,3-triazol-1-yl)-3-methylbutanoyl)-4-hydroxy-N-(( S)-1-(4-(4-methylthiazol-5-yl)phenyl)ethyl)pyrrolidine-2-carboxamide [Compound 194]			5.5 nM	IC50 (SW620): 26 nM
CCc1c(F)ccc2cc(O)cc(-c3ncc4c(N5CCC[C@@](C)(O)C5)nc(OCC5(CN6CCC(c7cc([C@H](C(=O)N8C[C@H](O)C[C@H]8C(=O)N[C@@H](C)c8ccc(-c9scnc9C)cc8)C(C)C)on7)CC6)CC5)nc4c3F)c12 [Compound 147]			16 nM	DC50 (KRAS G12D): 24 nM; Dmax (%) (KRAS G12D): 95%
CCc1c(F)ccc2cc(O)cc(-c3ncc4c(N5CCCC(C)(O)C5)nc(OCC5(CN6CCN(Cc7cc(-c8cn([C@H](C(=O)N9C[C@H](O)C[C@H]9C(=O)N[C@@H](C)c9ccc(-c%10scnc%10C)cc9)C(C)C)nn8)n(C)n7)CC6)CC5)nc4c3F)c12 (stereo partly shown) [Compound 202]	54 nM	15 nM		
(2S,4R)-1-((S)-2-(4-(5-(2-(4-((1-(((7-(8-ethyl-7-fluoro-3-hydroxynaphthalen-1-yl)-8-fluoro-4-(( R)-3-hydroxy-3-methylpiperidin-1-yl)pyrido[4,3-d]pyrimidin-2-yl)oxy)methyl)cyclopropyl)meth yl)piperazin-1-yl)ethyl)pyrazin-2-yl)-1H-1,2,3-triazol-1-yl)-3-methylbutanoyl)-4-hydroxy-N-((S )-1-(4-(4-methylthiazol-5-yl)phenyl)ethyl)pyrrolidine-2-carboxamide [Compound 191]			3.1 nM	IC50 (SW620): 12 nM
(2S,4R)-1-((S)-2-(4-(5-((1-((1-(((7-(8-ethyl-7-fluoro-3-hydroxynaphthalen-1-yl)-8-fluoro-4-((R)-3-hydroxy-3-methylpiperidin-1-yl)pyrido[4,3-d]pyrimidin-2-yl)oxy)methyl)cyclopropyl)methyl) piperidin-4-yl)methyl)piperazin-2-yl)-1H-1,2,3-triazol-1-yl)-3-methylbutanoyl)-4-hydroxy-N-((S )-1-(4-(4-methylthiazol-5-yl)phenyl)ethyl)pyrrolidine-2-carboxamide [Compound 193]			7.3 nM	IC50 (SW620): 24 nM
CCc1c(F)ccc2cc(O)cc(-c3ncc4c(N5CCC[C@@](C)(O)C5)nc(OCC5(CN6CCN(CCOc7cc([C@H](C(=O)N8C[C@H](O)C[C@H]8C(=O)N[C@@H](C)c8ccc(-c9scnc9C)cc8)C(C)C)on7)CC6)CC5)nc4c3F)c12 [Compound 175]	70 nM	26 nM		
C=C1CN2[C@H](COC(=O)N3CCC4(CC3)CC(C(=O)N[C@H](C(=O)N3C[C@H](O)C[C@H]3C(=O)N[C@@H](C)c3ccc(-c5scnc5C)cc3)C(C)(C)C)C4)CC[C@@]2(COc2nc(N3CCC[C@@](C)(O)C3)c3cnc(-c4cc(O)cc5ccc(F)c(CC)c45)c(F)c3n2)C1 [Compound 140]			28 nM	IC50 (SW620): 167 nM
CCc1c(F)ccc2cc(O)cc(-c3ncc4c(N5CCC[C@@](C)(O)C5)nc(OCC5(CN6CCN(C(=O)c7cnc(-c8cn([C@H](C(=O)N9C[C@H](O)C[C@H]9C(=O)N[C@@H](C)c9ccc(-c%10scnc%10C)cc9)C(C)C)nn8)cn7)CC6)CC5)nc4c3F)c12 [Compound 173]	35 nM	6 nM		

Now from value to compound, other results behind:

IC50 (SW620; [1])	IC50 (AGS; [2])	Compound	IC50 (AGS)	other results
17 nM	3.2 nM	(2S,4R)-1-((S)-2-(4-(5-(3-(4-((1-((7-(8-ethyl-7-fluoro-3-hydroxynaphthalen-1-yl)-8-fluoro-4-((R )-3-hydroxy-3-methylpiperidin-1-yl)pyrido[4,3-d]pyrimidin-2-yl)oxy)methyl)cyclopropyl)methy l)piperazin-1-yl)azetidin-1-yl)pyrazin-2-yl)-1H-1,2,3-triazol-1-yl)-3-methylbutanoyl)-4-hydroxy -N-((R)-2-hydroxy-1-(4-(4-methylthiazol-5-yl)phenyl)ethyl)pyrrolidine-2-carboxamide [Compound 192]		
21 nM	6.9 nM	CCc1c(F)ccc2cc(O)cc(-c3ncc4c(N5CCC[C@@](C)(O)C5)nc(OCC5(CN6CCC(OCc7cnc(-c8cn([C@H](C(=O)N9C[C@H](O)C[C@H]9C(=O)N[C@@H](C)c9ccc(-c%10scnc%10C)cc9)C(C)C)nn8)cn7)CC6)CC5)nc4c3F)c12 [Compound 198]		
46 nM	13 nM	CCc1c(F)ccc2cccc(-c3ncc4c(N5CCC[C@@](C)(O)C5)nc(OCC5(CN6CCC(Oc7cnc(-c8cn([C@H](C(=O)N9C[C@H](O)C[C@H]9C(=O)N[C@@H](C)c9ccc(-c%10scnc%10C)cc9)C(C)C)nn8)cn7)CC6)CC5)nc4c3F)c12 [Compound 201]		
18 nM	4.4 nM	CCc1c(F)ccc2cc(O)cc(-c3ncc4c(N5CCC[C@@](C)(O)C5)nc(OCC5(CN6CCC(N7CCC(c8cnc(-c9cn([C@H](C(=O)N%10C[C@H](O)C[C@H]%10C(=O)N[C@@H](C)c%10ccc(-c%11scnc%11C)cc%10)C(C)C)nn9)cn8)CC7)CC6)CC5)nc4c3F)c12 [Compound 195]		
38 nM	11 nM	CCc1c(F)ccc2cc(O)cc(-c3ncc4c(N5CCC[C@@](C)(O)C5)nc(OCC5(CN6CCC(Oc7cnc(-c8cn([C@H](C(=O)N9C[C@H](O)C[C@H]9C(=O)N[C@@H](CC(=O)NC)c9ccc(-c%10scnc%10C)cc9)C(C)C)nn8)cn7)CC6)CC5)nc4c3F)c12 [Compound 190, (2S,4R)-1-((S)-2-(4-(5-(1-((((7-(8-ethyl-7-fluoro-3-hydroxynaphthalen-1-yl)-8-fluoro-4-(((R)-3-hydroxy-3-methylpiperidin-1-yl)pyrido[4,3-d]pyrimidin-2-yl)oxy)methyl)cyclopropyl)methyl)piperidin-4-yl)oxy)-2-ylpyrazin-1H-1,2,3-triazol-1-yl)-3-methylbutanoyl)-4-hydroxy-N-((S)-3-(methylamino)-1-(4-(4-methylthiazol-5-yl)phenyl)-3-oxopropyl)pyrrolidine-2-carboxamide]		
59 nM	8 nM	(2S,4R)-1-((S)-2-(4-(5-(2-(4-((1-((7-(8-ethyl-7-fluoro-3-hydroxynaphthalen-1-yl)-8-fluoro-4-((R )-3-hydroxy-3-methylpiperidin-1-yl)pyrido[4,3-d]pyrimidin-2-yl)oxy)methyl)cyclopropyl)methy l)piperazin-1-yl)-2-oxyethyl)pyrazin-2-yl)-1H-1,2,3-triazol-1-yl)-3-methylbutanoyl)-4-hydroxy-N-((S)-1-(4-(4-methylthiazol-5-yl)phenyl)ethyl)pyrrolidine-2-carboxamide [Compound 174]		
20 nM	4.6 nM	(2S,4R)-1-((S)-2-(4-(5-(3-(1-(((7-(8-ethyl-7-fluoro-3-hydroxynaphthalen-1-yl)-8-fluoro-4-((R)-3 -hydroxy-3-methylpiperidin-1-yl)pyrido[4,3-d]pyrimidin-2-yl)-3-methylbutanoyl)-4-hydroxy-N-((S)-1-(4-(4-methylthiazol-5-yl)phenyl)ethyl)pyrrolidine-2-carboxamide [Compound 200]		
